The test has as its system E. coli strain BL21 (DE3). Put plainly: Antimicrobial activity: dose-dependent inhibition of E. coli growth (standard growth inhibition assay). The format is cell-based. The procedure: The antimicrobial activity of the cleaved peptides (same samples from Examples 5 and 6) was determined by measuring the dose-dependent inhibition of E. coli growth. The samples were tested for their ability to inhibit the growth of an overnight culture inoculated with E. coli strain BL21 (DE3). AMP samples were diluted serially into water in 96 well plates. Overnight cultures of E. coli BL21 (DE3) cells were diluted 1:50 into LB broth and 250 μl aliquots were transferred into 96-well plates. Each plate was incubated at 37° C. for one hour and then 50 μl of diluted peptide (or water) were added to each well. Each plate was incubated overnight at 37° C. and then the culture density was determined by measuring the apparent absorbance at 600 nm using a Spectromax Plus plate reader.

Entries after “also recorded” stand apart in the source; their conditions may differ. Ends that are not written are not given here.

For the sequence “PFAKKFAKKFKKFAKKFAKFAFAFGD [D2A21 with an additional proline on the N-terminus and a glycine-aspartate dipeptide on its C-terminus]”, the “antimicrobial activity as compared to the D2A21 core/parent peptide” value was “equivalent antimicrobial activity; also recorded: did not adversely affect the activity”.

Source of the values: patent US7595173B2, “Low-cost production of peptides” (Dow Global Technologies Inc., priority 2002, dated 2009).
